Reference: patent publication US10004701B2, “Methods and compositions for treating infection” (UNIVERSITY OF ROCHESTER, priority 2012, dated 2018)
Where a name gives a salt, the structure may show the parent alone. Read-outs that look alike come from different tables or passages of the source.

Experiments:
Test in all cases: AK assay 384-well format, Prestwick library screening
E. faecium = format: cell-based, Enterococcus faecium; conditions: 50 μM final drug concentration; for fold induction at 50 µM: Enterococcus faecium, 3 h
[1] = test system: S. aureus strain USA300-0114; format: cell-based, Staphylococcus aureus; conditions: 50 μM final drug concentration; for fold induction at 50 µM: Staphylococcus aureus, USA300, 3 h
K. pneumoniae = format: cell-based, Klebsiella pneumoniae; conditions: 50 μM final drug concentration; for fold induction at 50 µM: Klebsiella pneumoniae, 3 h
[2] = test system: A. baumannii strain 98-37-09; format: cell-based, Acinetobacter baumannii; conditions: 50 μM final drug concentration; for fold induction at 50 µM: Acinetobacter baumannii, 983709, 3 h
P. aeruginosa = format: cell-based, Pseudomonas aeruginosa; conditions: 50 μM final drug concentration; for fold induction at 50 µM: Pseudomonas aeruginosa, 3 h
E. cloacae = format: cell-based, Enterobacter cloacae; conditions: 50 μM final drug concentration; for fold induction at 50 µM: Enterobacter cloacae, 3 h
E. coli = format: cell-based, Escherichia coli; conditions: 50 μM final drug concentration; for fold induction at 50 µM: Escherichia coli, 3 h
[3] = 384-well format, cutoff for positive-scoring molecules 3-fold increase, read-out: AK-based Prestwick Library Screening Results, E. faecium (increase in extracellular AK activity)
[4] = 384-well format, cutoff for positive-scoring molecules 3-fold increase, read-out: AK-based Prestwick Library Screening Results, S. aureus (increase in extracellular AK activity)
[5] = 384-well format, cutoff for positive-scoring molecules 3-fold increase, read-out: AK-based Prestwick Library Screening Results, K. pneumoniae (increase in extracellular AK activity)
[6] = 384-well format, cutoff for positive-scoring molecules 3-fold increase, read-out: AK-based Prestwick Library Screening Results, A. baumannii (increase in extracellular AK activity)
[7] = 384-well format, cutoff for positive-scoring molecules 3-fold increase, read-out: AK-based Prestwick Library Screening Results, P. aeruginosa (increase in extracellular AK activity)
[8] = 384-well format, cutoff for positive-scoring molecules 3-fold increase, read-out: AK-based Prestwick Library Screening Results, E. cloacae (increase in extracellular AK activity)
[9] = 384-well format, cutoff for positive-scoring molecules 3-fold increase, read-out: AK-based Prestwick Library Screening Results, E. coli (increase in extracellular AK activity)

SMILES: CCCCc1ccc2[nH]c(NC(=O)OC)nc2c1 [Parbendazole]
- fold induction at 50 µM (E. faecium; planktonic E. faecium, […], read-out: AK-based Prestwick library screening result, E. faecium (fold increase in extracellular AK activity)): 0.6
- fold induction at 50 µM ([1]; planktonic S. aureus, […], read-out: AK-based Prestwick library screening result, S. aureus (fold increase in extracellular AK activity)): 0.7
- fold induction at 50 µM (K. pneumoniae; planktonic K. pneumoniae, […], read-out: AK-based Prestwick library screening result, K. pneumoniae (fold increase in extracellular AK activity)): 0.7
- fold induction at 50 µM ([2]; planktonic A. baumannii, […], read-out: AK-based Prestwick library screening result, A. baumannii (fold increase in extracellular AK activity)): 0.8
- fold induction at 50 µM (P. aeruginosa; planktonic P. aeruginosa, […], read-out: AK-based Prestwick library screening result, P. aeruginosa (fold increase in extracellular AK activity)): 0.7
- fold induction at 50 µM (E. cloacae; planktonic E. cloacae, […], read-out: AK-based Prestwick library screening result, E. cloacae (fold increase in extracellular AK activity)): 1.2
- fold induction at 50 µM (E. coli; planktonic E. coli, […], read-out: AK-based Prestwick library screening result, E. coli (fold increase in extracellular AK activity)): 0.7

SMILES: NS(=O)(=O)c1cc2c(cc1Cl)N=CNS2(=O)=O [Chlorothiazide]
- fold induction at 50 µM (E. faecium; [3]): 1
- fold induction at 50 µM [1, 4]: 0.8
- fold induction at 50 µM (K. pneumoniae; [5]): 0.7
- fold induction at 50 µM [2, 6]: 0.9
- fold induction at 50 µM (P. aeruginosa; [7]): 0.9
- fold induction at 50 µM (E. cloacae; [8]): 0.9
- fold induction at 50 µM (E. coli; [9]): 0.9

SMILES: CCCc1cc(=O)[nH]c(=S)[nH]1 [Propylthiouracil]
- fold induction at 50 µM (E. faecium; planktonic E. faecium, cutoff for positive-scoring molecules 3-fold increase, read-out: AK-based Prestwick Library Screening Results, E. faecium (increase in extracellular AK activity)): 1
- fold induction at 50 µM ([1]; planktonic S. aureus, cutoff for positive-scoring molecules 3-fold increase, read-out: AK-based Prestwick Library Screening Results, S. aureus (increase in extracellular AK activity)): 0.7
- fold induction at 50 µM (K. pneumoniae; planktonic K. pneumoniae, cutoff for positive-scoring molecules 3-fold increase, read-out: AK-based Prestwick Library Screening Results, K. pneumoniae (increase in extracellular AK activity)): 0.6
- fold induction at 50 µM ([2]; planktonic A. baumannii, cutoff for positive-scoring molecules 3-fold increase, read-out: AK-based Prestwick Library Screening Results, A. baumannii (increase in extracellular AK activity)): 0.8
- fold induction at 50 µM (P. aeruginosa; planktonic P. aeruginosa, cutoff for positive-scoring molecules 3-fold increase, read-out: AK-based Prestwick Library Screening Results, P. aeruginosa (increase in extracellular AK activity)): 0.7
- fold induction at 50 µM (E. cloacae; planktonic E. cloacae, cutoff for positive-scoring molecules 3-fold increase, read-out: AK-based Prestwick Library Screening Results, E. cloacae (increase in extracellular AK activity)): 1.1
- fold induction at 50 µM (E. coli; planktonic E. coli, cutoff for positive-scoring molecules 3-fold increase, read-out: AK-based Prestwick Library Screening Results, E. coli (increase in extracellular AK activity)): 0.7

SMILES: Cc1ncc(CO)c(CO)c1O [Pyridoxine hydrochloride]
- fold induction at 50 µM (E. faecium; planktonic, […], read-out: AK-based Prestwick Library Screening Results, E. faecium (fold increase in extracellular AK activity)): 1
- fold induction at 50 µM ([1]; planktonic, […], read-out: AK-based Prestwick Library Screening Results, S. aureus (fold increase in extracellular AK activity)): 1.3
- fold induction at 50 µM (K. pneumoniae; planktonic, […], read-out: AK-based Prestwick Library Screening Results, K. pneumoniae (fold increase in extracellular AK activity)): 1.1
- fold induction at 50 µM ([2]; planktonic, […], read-out: AK-based Prestwick Library Screening Results, A. baumannii (fold increase in extracellular AK activity)): 1.4
- fold induction at 50 µM (P. aeruginosa; planktonic, […], read-out: AK-based Prestwick Library Screening Results, P. aeruginosa (fold increase in extracellular AK activity)): 1.2
- fold induction at 50 µM (E. cloacae; planktonic, […], read-out: AK-based Prestwick Library Screening Results, E. cloacae (fold increase in extracellular AK activity)): 1.7
- fold induction at 50 µM (E. coli; planktonic, […], read-out: AK-based Prestwick Library Screening Results, E. coli (fold increase in extracellular AK activity)): 1.4

SMILES: CCC1(c2ccccc2)NC(=O)N(C)C1=O (centres unmarked) [Mephenytoin]
- fold induction at 50 µM (E. faecium; planktonic E. faecium, positive cutoff 3-fold increase, read-out: AK-based Prestwick library screening result, E. faecium (fold increase in extracellular AK activity)): 1
- fold induction at 50 µM ([1]; planktonic S. aureus, positive cutoff 3-fold increase, read-out: AK-based Prestwick library screening result, S. aureus (fold increase in extracellular AK activity)): 1.1
- fold induction at 50 µM (K. pneumoniae; planktonic K. pneumoniae, positive cutoff 3-fold increase, read-out: AK-based Prestwick library screening result, K. pneumoniae (fold increase in extracellular AK activity)): 1
- fold induction at 50 µM ([2]; planktonic A. baumannii, positive cutoff 3-fold increase, read-out: AK-based Prestwick library screening result, A. baumannii (fold increase in extracellular AK activity)): 1.3
- fold induction at 50 µM (P. aeruginosa; planktonic P. aeruginosa, positive cutoff 3-fold increase, read-out: AK-based Prestwick library screening result, P. aeruginosa (fold increase in extracellular AK activity)): 1
- fold induction at 50 µM (E. cloacae; planktonic E. cloacae, positive cutoff 3-fold increase, read-out: AK-based Prestwick library screening result, E. cloacae (fold increase in extracellular AK activity)): 1.3
- fold induction at 50 µM (E. coli; planktonic E. coli, positive cutoff 3-fold increase, read-out: AK-based Prestwick library screening result, E. coli (fold increase in extracellular AK activity)): 1.1

SMILES: CC1(C)OC(=O)NC1=O [Dimethadione]
- fold induction at 50 µM (E. faecium; planktonic, cutoff for positive-scoring molecules 3-fold increase, read-out: AK-based Prestwick Library Screening Results, E. faecium (fold increase in extracellular AK activity)): 0.9
- fold induction at 50 µM ([1]; planktonic, cutoff for positive-scoring molecules 3-fold increase, read-out: AK-based Prestwick Library Screening Results, S. aureus (fold increase in extracellular AK activity)): 0.7
- fold induction at 50 µM (K. pneumoniae; planktonic, cutoff for positive-scoring molecules 3-fold increase, read-out: AK-based Prestwick Library Screening Results, K. pneumoniae (fold increase in extracellular AK activity)): 0.8
- fold induction at 50 µM ([2]; planktonic, cutoff for positive-scoring molecules 3-fold increase, read-out: AK-based Prestwick Library Screening Results, A. baumannii (fold increase in extracellular AK activity)): 0.8
- fold induction at 50 µM (P. aeruginosa; planktonic, cutoff for positive-scoring molecules 3-fold increase, read-out: AK-based Prestwick Library Screening Results, P. aeruginosa (fold increase in extracellular AK activity)): 0.8
- fold induction at 50 µM (E. cloacae; planktonic, cutoff for positive-scoring molecules 3-fold increase, read-out: AK-based Prestwick Library Screening Results, E. cloacae (fold increase in extracellular AK activity)): 1
- fold induction at 50 µM (E. coli; planktonic, cutoff for positive-scoring molecules 3-fold increase, read-out: AK-based Prestwick Library Screening Results, E. coli (fold increase in extracellular AK activity)): 0.9

SMILES: CC[C@]12CCCN3CCc4c(n(c5ccccc45)[C@@](O)(C(=O)OC)C1)[C@@H]32 [Vincamine]
- fold induction at 50 µM (E. faecium; [3]): 0.9
- fold induction at 50 µM [1, 4]: 0.7
- fold induction at 50 µM (K. pneumoniae; [5]): 0.7
- fold induction at 50 µM [2, 6]: 0.9
- fold induction at 50 µM (P. aeruginosa; [7]): 1
- fold induction at 50 µM (E. cloacae; [8]): 1.2
- fold induction at 50 µM (E. coli; [9]): 0.9

SMILES: CC(C)[N+]1(C)[C@@H]2CC[C@H]1CC(OC(=O)C(CO)c1ccccc1)C2.[Br-] (some centres unmarked) [Ipratropium bromide]
- AK-based Prestwick Library Screening Results, E. faecium (increase in extracellular AK activity) (E. faecium; planktonic E. faecium, […]): 0.9
- AK-based Prestwick Library Screening Results, S. aureus (increase in extracellular AK activity) ([1]; planktonic S. aureus, […]): 0.7
- AK-based Prestwick Library Screening Results, K. pneumoniae (increase in extracellular AK activity) (K. pneumoniae; planktonic K. pneumoniae, […]): 0.6
- AK-based Prestwick Library Screening Results, A. baumannii (increase in extracellular AK activity) ([2]; planktonic A. baumannii, […]): 0.6
- AK-based Prestwick Library Screening Results, P. aeruginosa (increase in extracellular AK activity) (P. aeruginosa; planktonic P. aeruginosa, […]): 0.8
- AK-based Prestwick Library Screening Results, E. cloacae (increase in extracellular AK activity) (E. cloacae; planktonic E. cloacae, […]): 0.8
- AK-based Prestwick Library Screening Results, E. coli (increase in extracellular AK activity) (E. coli; planktonic E. coli, […]): 0.6
